Results: patent publication US10131652B2, “Pyrimidinyloxy benzene derivatives as herbicides” (E. I. DU PONT DE NEMOURS AND COMPANY, priority 2014, dated 2018)

What was measured:
Format in all cases: in vivo
[1] = system: ducksalad (Heteranthera limosa); test: Test C flooded paddy test plant response; conditions: Flood, 250 g ai/ha; scale of 0 to 100 where 0 is no effect and 100 is complete control; 13 to 15 days
Outline: (§1)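 Scored visually on a 0–100 scale (100 = complete control) against untreated plants 13 to 15 days after treatment in the greenhouse. Compounds went into paddy water of pots flooded to 3 cm, holding 2-leaf-stage plants.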

[2] = system: barnyardgrass (Echinochloa crus-galli); test: Test C flooded paddy test plant response; conditions: Flood, 250 g ai/ha; scale of 0 to 100 where 0 is no effect and 100 is complete control; 13 to 15 days
Outline: as §1

rice (Oryza sativa) = test: Test C flooded paddy test plant response; conditions: Flood, 250 g ai/ha; scale of 0 to 100 where 0 is no effect and 100 is complete control; 13 to 15 days
Outline: as §1

[3] = system: small-flower umbrella sedge (Cyperus difformis); test: Test C flooded paddy test plant response; conditions: Flood, 250 g ai/ha; scale of 0 to 100 where 0 is no effect and 100 is complete control; 13 to 15 days
Outline: as §1

[4] = system: blackgrass (Alopecurus myosuroides); test: Test B postemergence plant response
Outline: (§2)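 Visual injury ratings, 0 = no effect to 100 = complete control, versus untreated controls approximately 10 days after postemergence spraying in greenhouse. Plants were at one- to two-leaf stage, 2 to 10 cm tall, in loam soil/sand blend; a dash denotes no result.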

[5] = system: galium (catchweed bedstraw, Galium aparine); test: Test B postemergence plant response
Outline: as §2

[6] = system: ragweed (common ragweed, Ambrosia elatior); test: Test B pre-/postemergence plant response
Outline: (§3)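 Visual injury scores on a 0–100 scale (100 = complete control) relative to untreated plants, taken about 10 days post-treatment in greenhouse. Treatments were a directed preemergence soil spray and a postemergence spray at one- to two-leaf stage, using surfactant-containing solvent formulation.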

corn (Zea mays) = test: Test B pre-/postemergence plant response
Outline: as §3

[7] = system: pigweed (Amaranthus retroflexus); test: Test B pre-/postemergence plant response
Outline: as §3

[8] = system: Italian ryegrass (Lolium multiflorum); test: Test B pre-/postemergence plant response
Outline: as §3

[9] = system: giant foxtail (Setaria faberii); test: Test B pre-/postemergence plant response
Outline: as §3

[10] = system: barnyardgrass (Echinochloa crus-galli); test: Test B pre-/postemergence plant response
Outline: as §3

kochia (Kochia scoparia) = test: Test B pre-/postemergence plant response
Outline: as §3

[11] = system: wheat (Triticum aestivum); test: Test B pre-/postemergence plant response
Outline: as §3

[12] = 125 g ai/ha, postemergence, 0 to 100 scale, 0 no effect, 100 complete control
[13] = Postemergence, 31 g ai/ha, 0 to 100 scale (0 no effect, 100 complete control)
[14] = 31 g ai/ha, Preemergence, 0 to 100 scale where 0 is no effect and 100 is complete control
[15] = Preemergence, 125 g ai/ha, 0 to 100 scale (0 no effect, 100 complete control)
[16] = 31 g ai/ha, Postemergence, 0 to 100 scale, 0 no effect, 100 complete control

SMILES	Ducksalad plant response rating [1]	Barnyardgrass plant response rating [2]	Rice plant response rating (rice (Oryza sativa))	Sedge, Umbrella plant response rating [3]	Plant response rating, Blackgrass [4, 12]	Plant response rating, Galium [5, 12]	Plant response rating, Ragweed [6, 14]	Plant response rating, Ragweed [6, 12]	Ragweed plant response rating [6, 15]	Plant response rating, Corn (corn (Zea mays); [12])	Plant response rating, Pigweed [7, 14]	Plant response rating, Pigweed [7, 12]	Pigweed plant response rating [7, 15]	Plant response rating, Ryegrass, Italian [8, 14]	Plant response rating, Ryegrass, Italian [8, 12]	Ryegrass, Italian plant response rating [8, 15]	Plant response rating, Foxtail, Giant [9, 14]	Plant response rating, Foxtail, Giant [9, 12]	Foxtail, Giant plant response rating [9, 15]	Plant response rating, Barnyardgrass [10, 14]	also measured
Clc1cnc(Oc2ccccc2-c2ccsc2)nc1 [Compound 231]	65	0	0	70	0	20	0	0	0	0	0	40	20	0	0	0	0	10	10	0	Plant response rating, Blackgrass [4, 13]: 0; Plant response rating, Galium [5, 13]: 0; Plant response rating, Ragweed [6, 13]: 0; Plant response rating, Corn (corn (Zea mays); [13]): 0; Plant response rating, Pigweed [7, 13]: 20; Plant response rating, Ryegrass, Italian [8, 13]: 0; Plant response rating, Foxtail, Giant [9, 13]: 0; Plant response rating, Barnyardgrass [10, 12]: 10; Plant response rating, Barnyardgrass [10, 13]: 0; Barnyardgrass plant response rating [10, 15]: 10; Plant response rating, Kochia (kochia (Kochia scoparia); [14]): 0; Plant response rating, Kochia (kochia (Kochia scoparia); [12]): 40; Plant response rating, Kochia (kochia (Kochia scoparia); [13]): 20; Kochia plant response rating (kochia (Kochia scoparia); [15]): 0; Plant response rating, Wheat [11, 12]: 0; Plant response rating, Wheat [11, 13]: 0
CC(=O)c1cc(-c2ccccc2Oc2ncc(Br)cn2)no1 [Compound 150]	0	0	0	0	10	10	0	0	0	10	0	20	20	0	0	0	0	10	20	0	Plant response rating, Blackgrass [4, 13]: 0; Plant response rating, Galium [5, 13]: 0; Plant response rating, Ragweed [6, 13]: 0; Plant response rating, Corn (corn (Zea mays); [13]): 0; Plant response rating, Pigweed [7, 13]: 10; Plant response rating, Ryegrass, Italian [8, 13]: 0; Plant response rating, Foxtail, Giant [9, 13]: 0; Plant response rating, Barnyardgrass [10, 12]: 20; Plant response rating, Barnyardgrass [10, 13]: 0; Barnyardgrass plant response rating [10, 15]: 20; Plant response rating, Kochia (kochia (Kochia scoparia); [14]): 0; Plant response rating, Kochia (kochia (Kochia scoparia); [12]): 0; Plant response rating, Kochia (kochia (Kochia scoparia); [13]): 0; Kochia plant response rating (kochia (Kochia scoparia); [15]): 0; Plant response rating, Wheat [11, 12]: 0; Plant response rating, Wheat [11, 13]: 0
O=Cc1cc(-c2ccccc2Oc2ncc(Cl)cn2)co1 [Compound 140]	0	0	0	0	0	0	0	0	0	0	0	0	0	0	0	0	0	0	0	0	Plant response rating, Blackgrass [4, 16]: 0; Plant response rating, Corn (corn (Zea mays); [16]): 0; Plant response rating, Foxtail, Giant [9, 16]: 0; Plant response rating, Barnyardgrass [10, 16]: 0; Plant response rating, Barnyardgrass [10, 12]: 0; Barnyardgrass plant response rating [10, 15]: 0; Plant response rating, Kochia (kochia (Kochia scoparia); [14]): 0; Plant response rating, Kochia (kochia (Kochia scoparia); [12]): 0; Kochia plant response rating (kochia (Kochia scoparia); [15]): 0; Plant response rating, Wheat [11, 12]: 0
FC(F)(F)COc1cc(-c2ccccc2Oc2ncc(Cl)cn2)ncn1 [Compound 227]	98	0	0	85	70	80	0	30	0	20	40	90	80	0	30	10	40	60	90	10	Plant response rating, Blackgrass [4, 13]: 10; Plant response rating, Galium [5, 13]: 70; Plant response rating, Ragweed [6, 13]: 10; Plant response rating, Corn (corn (Zea mays); [13]): 10; Plant response rating, Pigweed [7, 13]: 60; Plant response rating, Ryegrass, Italian [8, 13]: 0; Plant response rating, Foxtail, Giant [9, 13]: 10; Plant response rating, Barnyardgrass [10, 12]: 60; Plant response rating, Barnyardgrass [10, 13]: 10; Barnyardgrass plant response rating [10, 15]: 50; Plant response rating, Kochia (kochia (Kochia scoparia); [14]): 0; Plant response rating, Kochia (kochia (Kochia scoparia); [12]): 80; Plant response rating, Kochia (kochia (Kochia scoparia); [13]): 40; Kochia plant response rating (kochia (Kochia scoparia); [15]): 50; Plant response rating, Wheat [11, 12]: 20; Plant response rating, Wheat [11, 13]: 0
